What was measured:
Test in all cases: relative viability (nuclei count vs DMSO), 5 days (fraction); higher = more cells survive
HCC-366 = system: HCC-366
How it was run: (§1)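 Nuclei were stained with Hoechst during a one-step fixation (final 0.05% Triton X-100, 1% formaldehyde, 1 ug/ml Hoechst) carried out 5 days after dosing, then counted on 4× images. The cells, lung cancer lines in 1536-well plates, had been dosed by pin tool the day after seeding with one drug alone or a fixed anchor-drug dose plus five library-drug doses (not always all listed) in √10 steps. Relative viability is the nuclei count in treated wells divided by that in vehicle wells, and each value is the median of duplicate plates.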

NCI-H2228 = system: NCI-H2228
How it was run: as §1

NCI-H23 = system: NCI-H23
How it was run: as §1

HOP-62 = system: HOP-62
How it was run: as §1

COR-L 105 = system: COR-L 105
How it was run: as §1

NCI-H1355 = system: NCI-H1355
How it was run: as §1

SW 1573 = system: SW 1573
How it was run: as §1

NCI-H1437 = system: NCI-H1437
How it was run: as §1

EMC-BAC-2 = system: EMC-BAC-2
How it was run: as §1

NCI-H1755 = system: NCI-H1755
How it was run: as §1

NCI-H1975 = system: NCI-H1975
How it was run: as §1

CAL-12T = system: CAL-12T
How it was run: as §1

LCLC-103H = system: LCLC-103H
How it was run: as §1

NCI-H1395 = system: NCI-H1395
How it was run: as §1

NCI-H727 = system: NCI-H727
How it was run: as §1

NCI-H460 = system: NCI-H460
How it was run: as §1

A-427 = system: A-427
How it was run: as §1

SK-LU-1 = system: SK-LU-1
How it was run: as §1

NCI-H1915 = system: NCI-H1915
How it was run: as §1

HARA = system: HARA
How it was run: as §1

HCC-827 = system: HCC-827
How it was run: as §1

NCI-H2009 = system: NCI-H2009
How it was run: as §1

Question: Which results are given for CC1(C)CCC(c2ccc(Cl)cc2)=C(CN2CCN(c3ccc(C(=O)NS(=O)(=O)c4ccc(N[C@H](CCN5CCOCC5)CSc5ccccc5)c(S(=O)(=O)C(F)(F)F)c4)cc3)CC2)C1 [Navitoclax] + COc1cc2c(Oc3ccc(NC(=O)C4(C(=O)Nc5ccc(F)cc5)CC4)cc3F)ccnc2cc1OCCCN1CCOCC1 [Foretinib] (partner 0.25 µM)?
Answer: relative viability (HCC-366; first compound 0.005 µM): 0.98; relative viability (HCC-366; first compound 0.01581 µM): 0.82; relative viability (HCC-366; first compound 0.1581 µM): 1; relative viability (HCC-366; first compound 0.5 µM): 0.982; relative viability (NCI-H2228; first compound 0.005 µM): 0.727; relative viability (NCI-H2228; first compound 0.01581 µM): 1.04; relative viability (NCI-H2228; first compound 0.1581 µM): 1.01; relative viability (NCI-H2228; first compound 0.5 µM): 0.85; relative viability (NCI-H23; first compound 0.005 µM): 1.04; relative viability (NCI-H23; first compound 0.01581 µM): 1.1; relative viability (NCI-H23; first compound 0.05 µM): 1.08; relative viability (NCI-H23; first compound 0.1581 µM): 0.768; relative viability (NCI-H23; first compound 0.5 µM): 0.882; relative viability (HOP-62; first compound 0.005 µM): 1.07; relative viability (HOP-62; first compound 0.01581 µM): 1.15; relative viability (HOP-62; first compound 0.05 µM): 1.19; relative viability (HOP-62; first compound 0.1581 µM): 1.02; relative viability (HOP-62; first compound 0.5 µM): 1.02; relative viability (COR-L 105; first compound 0.005 µM): 1.17; relative viability (COR-L 105; first compound 0.01581 µM): 1.46; relative viability (COR-L 105; first compound 0.05 µM): 1.31; relative viability (COR-L 105; first compound 0.1581 µM): 0.865; relative viability (COR-L 105; first compound 0.5 µM): 0.979; relative viability (NCI-H1355; first compound 0.005 µM): 0.993; relative viability (NCI-H1355; first compound 0.01581 µM): 0.951; relative viability (NCI-H1355; first compound 0.05 µM): 0.939; relative viability (NCI-H1355; first compound 0.1581 µM): 0.941; relative viability (NCI-H1355; first compound 0.5 µM): 0.965; relative viability (SW 1573; first compound 0.005 µM): 1.06; relative viability (SW 1573; first compound 0.01581 µM): 1; relative viability (SW 1573; first compound 0.05 µM): 0.922; relative viability (SW 1573; first compound 0.1581 µM): 1.02; relative viability (SW 1573; first compound 0.5 µM): 1.04; relative viability (NCI-H1437; first compound 0.005 µM): 1.18; relative viability (NCI-H1437; first compound 0.01581 µM): 1.3; relative viability (NCI-H1437; first compound 0.05 µM): 1.1; relative viability (NCI-H1437; first compound 0.1581 µM): 1.31; relative viability (NCI-H1437; first compound 0.5 µM): 1.27; relative viability (EMC-BAC-2; first compound 0.005 µM): 1.07; relative viability (EMC-BAC-2; first compound 0.01581 µM): 1.14; relative viability (EMC-BAC-2; first compound 0.05 µM): 0.96; relative viability (EMC-BAC-2; first compound 0.1581 µM): 1.01; relative viability (EMC-BAC-2; first compound 0.5 µM): 1.05; relative viability (NCI-H1755; first compound 0.005 µM): 0.873; relative viability (NCI-H1755; first compound 0.01581 µM): 1.01; relative viability (NCI-H1755; first compound 0.05 µM): 0.735; relative viability (NCI-H1755; first compound 0.1581 µM): 0.901; relative viability (NCI-H1755; first compound 0.5 µM): 0.855; relative viability (NCI-H1975; first compound 0.005 µM): 0.887; relative viability (NCI-H1975; first compound 0.01581 µM): 1.03; relative viability (NCI-H1975; first compound 0.05 µM): 1.03; relative viability (NCI-H1975; first compound 0.1581 µM): 0.914; relative viability (NCI-H1975; first compound 0.5 µM): 1.04; relative viability (CAL-12T; first compound 0.005 µM): 1.08; relative viability (CAL-12T; first compound 0.01581 µM): 1.17; relative viability (CAL-12T; first compound 0.05 µM): 1.16; relative viability (CAL-12T; first compound 0.1581 µM): 1.11; relative viability (CAL-12T; first compound 0.5 µM): 1.11; relative viability (LCLC-103H; first compound 0.005 µM): 0.676; relative viability (LCLC-103H; first compound 0.01581 µM): 0.934; relative viability (LCLC-103H; first compound 0.05 µM): 0.973; relative viability (LCLC-103H; first compound 0.1581 µM): 0.832; relative viability (LCLC-103H; first compound 0.5 µM): 0.81; relative viability (NCI-H1395; first compound 0.005 µM): 1.15; relative viability (NCI-H1395; first compound 0.01581 µM): 1.19; relative viability (NCI-H1395; first compound 0.05 µM): 0.865; relative viability (NCI-H1395; first compound 0.1581 µM): 0.986; relative viability (NCI-H1395; first compound 0.5 µM): 1.12; relative viability (NCI-H727; first compound 0.005 µM): 1.12; relative viability (NCI-H727; first compound 0.01581 µM): 0.902; relative viability (NCI-H727; first compound 0.1581 µM): 0.829; relative viability (NCI-H727; first compound 0.5 µM): 0.858; relative viability (NCI-H460; first compound 0.005 µM): 0.991; relative viability (NCI-H460; first compound 0.01581 µM): 1.02; relative viability (NCI-H460; first compound 0.05 µM): 0.713; relative viability (NCI-H460; first compound 0.1581 µM): 1.01; relative viability (NCI-H460; first compound 0.5 µM): 0.941; relative viability (A-427; first compound 0.005 µM): 0.988; relative viability (A-427; first compound 0.01581 µM): 1.07; relative viability (A-427; first compound 0.05 µM): 0.821; relative viability (A-427; first compound 0.1581 µM): 1.04; relative viability (A-427; first compound 0.5 µM): 1.1; relative viability (SK-LU-1; first compound 0.005 µM): 0.928; relative viability (SK-LU-1; first compound 0.01581 µM): 0.954; relative viability (SK-LU-1; first compound 0.05 µM): 0.953; relative viability (SK-LU-1; first compound 0.1581 µM): 0.772; relative viability (SK-LU-1; first compound 0.5 µM): 0.741; relative viability (NCI-H1915; first compound 0.005 µM): 1.08; relative viability (NCI-H1915; first compound 0.01581 µM): 1.12; relative viability (NCI-H1915; first compound 0.05 µM): 1.11; relative viability (NCI-H1915; first compound 0.1581 µM): 1.02; relative viability (NCI-H1915; first compound 0.5 µM): 1.07; relative viability (HARA; first compound 0.005 µM): 0.923; relative viability (HARA; first compound 0.01581 µM): 1.05; relative viability (HARA; first compound 0.1581 µM): 0.877; relative viability (HARA; first compound 0.5 µM): 0.863; relative viability (HCC-827; first compound 0.005 µM): 0.914; relative viability (HCC-827; first compound 0.01581 µM): 1.05; relative viability (HCC-827; first compound 0.05 µM): 0.832; relative viability (HCC-827; first compound 0.1581 µM): 1.03; relative viability (HCC-827; first compound 0.5 µM): 1.01; relative viability (NCI-H2009; first compound 0.005 µM): 1.22; relative viability (NCI-H2009; first compound 0.01581 µM): 1.29; relative viability (NCI-H2009; first compound 0.05 µM): 1.26; relative viability (NCI-H2009; first compound 0.1581 µM): 1.26; relative viability (NCI-H2009; first compound 0.5 µM): 1.27
